The record followed here is paper PMC5218480 (PLoS ONE, 2017).

This experiment has as its system MV-4-11 cells. The experiment in a line: Gene expression microarray analysis (Affymetrix PrimeView) and GSEA. It is filed as cell-based, human. The arrangement: RFU PODN (11730768_x_at) / Fold change /veh PODN (11730768_x_at) / RFU LINC00158 (11744669_a_at) / Fold change /veh LINC00158 (11744669_a_at) / RFU DUSP10 (11751237_a_at) / Fold change /veh DUSP10 (11751237_a_at) / RFU ID3 (11757404_x_at) / Fold change /veh ID3 (11757404_x_at) / RFU PLEKHG5 (11737974_s_at) / Fold change /veh PLEKHG5 (11737974_s_at) / RFU LRRC4B (11730491_at) / Fold change /veh LRRC4B (11730491_at) / RFU GIMAP4 (11747438_a_at) / Fold change /veh GIMAP4 (11747438_a_at) / RFU KRT8 (11758183_x_at) / Fold change /veh KRT8 (11758183_x_at) / RFU CNN1 (11734310_a_at) / Fold change /veh CNN1 (11734310_a_at) / RFU VPS37D (11726825_at) / Fold change /veh VPS37D (11726825_at) / RFU C10orf10 (11716522_x_at) / Fold change /veh C10orf10 (11716522_x_at) / RFU KIR2DL2 /// KIR2DL4 /// KIR2DL5A /// KIR2DL5B /// KIR2DS1 /// KIR2DS2 /// KIR2DS3 /// KIR2DS4 /// KIR3DL3 /// KIR3DL3 /// KIR3DS1 (11738374_at) / Fold change /veh KIR2DL2 /// KIR2DL4 /// KIR2DL5A /// KIR2DL5B /// KIR2DS1 /// KIR2DS2 /// KIR2DS3 /// KIR2DS4 /// KIR3DL3 /// KIR3DL3 /// KIR3DS1 (11738374_at) / RFU C1QL1 (11718748_at) / Fold change /veh C1QL1 (11718748_at) / RFU TMPRSS4 (11747572_a_at) / Fold change /veh TMPRSS4 (11747572_a_at) / RFU HAMP (11756126_x_at) / Fold change /veh HAMP (11756126_x_at) / RFU RNFT2 (11725882_a_at) / Fold change /veh RNFT2 (11725882_a_at) / RFU NR4A2 (11747474_a_at) / Fold change /veh NR4A2 (11747474_a_at) / RFU ABCC12 (11746883_a_at) / Fold change /veh ABCC12 (11746883_a_at) / RFU TMEM136 (11760407_x_at) / Fold change /veh TMEM136 (11760407_x_at) / RFU CLDN22 /// WWC2 (11732394_at) / Fold change /veh CLDN22 /// WWC2 (11732394_at) / RFU HLA-DPB1 (11760878_x_at) / Fold change /veh HLA-DPB1 (11760878_x_at) / RFU SPINT1 (11716480_a_at) / Fold change /veh SPINT1 (11716480_a_at) / RFU GAP43 (11754022_s_at) / Fold change /veh GAP43 (11754022_s_at) / RFU A4GNT (11735810_at) / Fold change /veh A4GNT (11735810_at) / RFU PRB3 (11715151_x_at) / Fold change /veh PRB3 (11715151_x_at) / RFU TUBB4B (11761932_at) / Fold change /veh TUBB4B (11761932_at) / RFU CAPN14 (11732068_a_at) / Fold change /veh CAPN14 (11732068_a_at) / RFU TMCC2 (11721928_a_at) / Fold change /veh TMCC2 (11721928_a_at) / RFU IRGQ (11745062_a_at) / Fold change /veh IRGQ (11745062_a_at) / RFU FAM174B (11720279_a_at) / Fold change /veh FAM174B (11720279_a_at) / RFU TMPRSS4 (11748680_a_at) / Fold change /veh TMPRSS4 (11748680_a_at) / RFU FAM212B (11763350_a_at) / Fold change /veh FAM212B (11763350_a_at) / RFU PLEKHG5 (11743358_a_at) / Fold change /veh PLEKHG5 (11743358_a_at) / RFU ZSCAN30 (11745921_a_at) / Fold change /veh ZSCAN30 (11745921_a_at) / RFU CMKLR1 (11741424_a_at) / Fold change /veh CMKLR1 (11741424_a_at) / RFU LOC101060620 /// MAPK8IP1 (11723275_at) / Fold change /veh LOC101060620 /// MAPK8IP1 (11723275_at) / RFU SPTSSB (11747773_x_at) / Fold change /veh SPTSSB (11747773_x_at) / RFU PRSS12 (11739890_at) / Fold change /veh PRSS12 (11739890_at) / RFU BIN1 (11741810_x_at) / Fold change /veh BIN1 (11741810_x_at) / RFU WNT11 (11732464_a_at) / Fold change /veh WNT11 (11732464_a_at) / RFU C10orf10 (11716521_a_at) / Fold change /veh C10orf10 (11716521_a_at) / RFU C5orf56 (11738089_at) / Fold change /veh C5orf56 (11738089_at) / RFU CYB561 (11721691_x_at) / Fold change /veh CYB561 (11721691_x_at) / RFU ANKRD19P (11752326_a_at) / Fold change /veh ANKRD19P (11752326_a_at) / RFU OR2T12 /// OR2T33 /// OR2T8 (11738714_s_at) / Fold change /veh OR2T12 /// OR2T33 /// OR2T8 (11738714_s_at) / RFU VCAN (11748164_a_at) / Fold change /veh VCAN (11748164_a_at) / RFU JSRP1 (11732532_at) / Fold change /veh JSRP1 (11732532_at) / RFU KRTAP10-11 (11738290_x_at) / Fold change /veh KRTAP10-11 (11738290_x_at) / RFU MYO3A (11730013_a_at) / Fold change /veh MYO3A (11730013_a_at) / RFU EBF3 (11725865_a_at) / Fold change /veh EBF3 (11725865_a_at) / RFU CAMK2N1 (11719241_x_at) / Fold change /veh CAMK2N1 (11719241_x_at) / RFU C5orf56 (11738088_a_at) / Fold change /veh C5orf56 (11738088_a_at) / RFU OLFML3 (11715873_a_at) / Fold change /veh OLFML3 (11715873_a_at) / RFU LOC100653217 /// NTM (11731650_a_at) / Fold change /veh LOC100653217 /// NTM (11731650_a_at) / RFU MAPK11 (11762145_a_at) / Fold change /veh MAPK11 (11762145_a_at) / RFU FIZ1 (11724087_x_at) / Fold change /veh FIZ1 (11724087_x_at) / RFU OASL (11726364_x_at) / Fold change /veh OASL (11726364_x_at) / RFU SOX15 (11748057_x_at) / Fold change /veh SOX15 (11748057_x_at) / RFU CD79A (11719716_a_at) / Fold change /veh CD79A (11719716_a_at) / RFU HIST1H1D (11736915_at) / Fold change /veh HIST1H1D (11736915_at) / RFU CASKIN2 (11723855_a_at) / Fold change /veh CASKIN2 (11723855_a_at) / RFU LOC730098 (11760151_x_at) / Fold change /veh LOC730098 (11760151_x_at) / RFU OR4N2 (11742367_at) / Fold change /veh OR4N2 (11742367_at) / RFU PRRT2 (11749266_a_at) / Fold change /veh PRRT2 (11749266_a_at) / RFU SNX32 (11753110_a_at) / Fold change /veh SNX32 (11753110_a_at) / RFU CDHR5 (11726645_a_at) / Fold change /veh CDHR5 (11726645_a_at) / RFU RCAN1 (11760418_a_at) / Fold change /veh RCAN1 (11760418_a_at) / RFU FAM167A (11723789_a_at) / Fold change /veh FAM167A (11723789_a_at) / RFU FAM26E (11764081_at) / Fold change /veh FAM26E (11764081_at) / RFU ISYNA1 (11749810_s_at) / Fold change /veh ISYNA1 (11749810_s_at) / RFU ACY1 (11761880_at) / Fold change /veh ACY1 (11761880_at) / RFU 11764098_at / Fold change /veh 11764098_at / RFU SAMD14 (11745864_x_at) / Fold change /veh SAMD14 (11745864_x_at) / RFU NPB (11741838_a_at) / Fold change /veh NPB (11741838_a_at) / RFU TMPRSS6 (11731388_a_at) / Fold change /veh TMPRSS6 (11731388_a_at) / RFU KRTAP10-2 (11738614_at) / Fold change /veh KRTAP10-2 (11738614_at) / RFU ARHGAP8 /// PRR5-ARHGAP8 (11727945_x_at) / Fold change /veh ARHGAP8 /// PRR5-ARHGAP8 (11727945_x_at) / RFU KRTAP5-7 /// NADSYN1 (11734609_at) / Fold change /veh KRTAP5-7 /// NADSYN1 (11734609_at) / RFU RASL12 (11751679_a_at) / Fold change /veh RASL12 (11751679_a_at) / RFU CDKN2B (11736163_a_at) / Fold change /veh CDKN2B (11736163_a_at) / RFU PRF1 (11729649_at) / Fold change /veh PRF1 (11729649_at) / RFU, ZNF638 /// ZNF638-IT1 / Fold change vs veh, ZNF638 /// ZNF638-IT1 / RFU, PANK3 / Fold change vs veh, PANK3 / RFU, SH3YL1 / Fold change vs veh, SH3YL1 / RFU, ZEB2 / Fold change vs veh, ZEB2 / RFU, NRIP1 / Fold change vs veh, NRIP1 / RFU, PTTG1IP / Fold change vs veh, PTTG1IP / RFU, CAPN2 / Fold change vs veh, CAPN2 / RFU, MED14 / Fold change vs veh, MED14 / RFU, SNORA58 / Fold change vs veh, SNORA58 / RFU, C1orf63 / Fold change vs veh, C1orf63 / RFU, LRRFIP1 / Fold change vs veh, LRRFIP1 / RFU, NDUFAF7 / Fold change vs veh, NDUFAF7 / RFU, SLC12A2 / Fold change vs veh, SLC12A2 / RFU, IBTK / Fold change vs veh, IBTK / RFU, ESF1 / Fold change vs veh, ESF1 / Fold change vs veh, TMEM50B / RFU, TAOK1 / Fold change vs veh, TAOK1 / RFU, ACBD3 / Fold change vs veh, ACBD3 / RFU, TMA16 / Fold change vs veh, TMA16 / RFU, RWDD3 / Fold change vs veh, RWDD3 / RFU, BCAT1 / Fold change vs veh, BCAT1 / RFU, EDEM3 / Fold change vs veh, EDEM3 / RFU, TMEM33 / Fold change vs veh, TMEM33 / RFU, WDR75 / Fold change vs veh, WDR75 / RFU, AHCTF1 / Fold change vs veh, AHCTF1 / RFU, TFRC / Fold change vs veh, TFRC / RFU, ZDHHC17 / Fold change vs veh, ZDHHC17 / RFU, NOM1 / Fold change vs veh, NOM1 / RFU, ARL8B / Fold change vs veh, ARL8B / RFU, ZBTB11 / Fold change vs veh, ZBTB11 / RFU, TAMM41 / Fold change vs veh, TAMM41 / RFU, KIAA1704 /// LOC100996395 / Fold change vs veh, KIAA1704 /// LOC100996395 / RFU, ING1 / Fold change vs veh, ING1 / RFU, TRMT61B / Fold change vs veh, TRMT61B / RFU, FUBP3 / Fold change vs veh, FUBP3 / RFU, TP53 / Fold change vs veh, TP53 / RFU, TNKS2 / Fold change vs veh, TNKS2 / RFU, ZFP14 / Fold change vs veh, ZFP14 / RFU, ACTR2 / Fold change vs veh, ACTR2 / RFU, PPP3R1 / Fold change vs veh, PPP3R1 / RFU, PIK3R1 / Fold change vs veh, PIK3R1 / RFU, HNRNPA1 / Fold change vs veh, HNRNPA1 / RFU, RNF170 / Fold change vs veh, RNF170 / RFU, ZNF28 / Fold change vs veh, ZNF28 / RFU, RNGTT / Fold change vs veh, RNGTT / RFU, OGT / Fold change vs veh, OGT / RFU, BRD1 / Fold change vs veh, BRD1 / RFU, MARS / Fold change vs veh, MARS / RFU, ZNF655 / Fold change vs veh, ZNF655 / RFU, FAHD1 / Fold change vs veh, FAHD1 / RFU, BDP1 / Fold change vs veh, BDP1 / RFU, LRRCC1 / Fold change vs veh, LRRCC1 / RFU, ARID1A / Fold change vs veh, ARID1A / RFU, ZNF146 / Fold change vs veh, ZNF146 / RFU, ZNF330 / Fold change vs veh, ZNF330 / RFU, GPN3 / Fold change vs veh, GPN3 / RFU, C9orf123 / Fold change vs veh, C9orf123 / RFU, N4BP2L2 / Fold change vs veh, N4BP2L2 / RFU, ARFIP1 / Fold change vs veh, ARFIP1 / RFU, FAM179B / Fold change vs veh, FAM179B / RFU, BCL10 / Fold change vs veh, BCL10 / RFU, UHRF1BP1L / Fold change vs veh, UHRF1BP1L / RFU, BET1 / Fold change vs veh, BET1 / RFU, CNOT2 / Fold change vs veh, CNOT2 / RFU, ZNF268 / Fold change vs veh, ZNF268 / Fold change vs veh, ZNF507 / RFU, DGCR2 / Fold change vs veh, DGCR2 / RFU, WDSUB1 / Fold change vs veh, WDSUB1 / Fold change vs veh, HSP90B1 /// MIR3652 / RFU, ADSS / Fold change vs veh, ADSS / RFU, GK / Fold change vs veh, GK / RFU, ZNF148 / Fold change vs veh, ZNF148 / RFU, TAF9 / Fold change vs veh, TAF9 / RFU, SLC1A5 / Fold change vs veh, SLC1A5 / RFU, SLMO2 / Fold change vs veh, SLMO2 / RFU, ABCC4 / Fold change vs veh, ABCC4 / RFU, LOC101060439 /// RAP1B / Fold change vs veh, LOC101060439 /// RAP1B / RFU, RFX7 / Fold change vs veh, RFX7 / RFU, GTPBP10 / Fold change vs veh, GTPBP10 / RFU, CNEP1R1 / Fold change vs veh, CNEP1R1 / RFU, BIVM-ERCC5 /// ERCC5 / Fold change vs veh, BIVM-ERCC5 /// ERCC5 / RFU, ILF3 / Fold change vs veh, ILF3 / RFU 11762660_at / Fold change /veh 11762660_at / RFU VCAN (11757783_s_at) / Fold change /veh VCAN (11757783_s_at) / RFU DDX43 (11728927_at) / Fold change /veh DDX43 (11728927_at) / RFU KRT8 (11758188_x_at) / Fold change /veh KRT8 (11758188_x_at) / RFU NKD1 (11759106_at) / Fold change /veh NKD1 (11759106_at) / RFU SRD5A1 (11742802_a_at) / Fold change /veh SRD5A1 (11742802_a_at) / RFU TPSAB1 /// TPSB2 (11721975_s_at) / Fold change /veh TPSAB1 /// TPSB2 (11721975_s_at) / RFU GSTM3 (11746129_a_at) / Fold change /veh GSTM3 (11746129_a_at) / RFU IL23R (11737362_x_at) / Fold change /veh IL23R (11737362_x_at) / RFU TMEM51 (11727254_a_at) / Fold change /veh TMEM51 (11727254_a_at) / RFU PIWIL2 (11732686_x_at) / Fold change /veh PIWIL2 (11732686_x_at) / RFU ORM1 (11744905_x_at) / Fold change /veh ORM1 (11744905_x_at) / RFU CCDC152 (11743942_at) / Fold change /veh CCDC152 (11743942_at) / RFU ECM1 (11717891_a_at) / Fold change /veh ECM1 (11717891_a_at) / RFU IL23R (11748794_a_at) / Fold change /veh IL23R (11748794_a_at) / RFU TNFAIP8L3 (11732012_x_at) / Fold change /veh TNFAIP8L3 (11732012_x_at) / RFU MBOAT4 (11741988_at) / Fold change /veh MBOAT4 (11741988_at) / RFU 11764193_at / Fold change /veh 11764193_at / RFU TMEM53 (11763286_at) / Fold change /veh TMEM53 (11763286_at) / RFU MAGEB2 (11727129_at) / Fold change /veh MAGEB2 (11727129_at) / RFU TMEM200A (11744735_a_at) / Fold change /veh TMEM200A (11744735_a_at) / RFU CCDC152 (11751479_a_at) / Fold change /veh CCDC152 (11751479_a_at) / RFU FAM211A (11726209_a_at) / Fold change /veh FAM211A (11726209_a_at) / RFU RGS16 (11746705_a_at) / Fold change /veh RGS16 (11746705_a_at) / RFU VCAN (11755009_s_at) / Fold change /veh VCAN (11755009_s_at) / RFU RHOB (11743442_s_at) / Fold change /veh RHOB (11743442_s_at) / RFU RGS16 (11720943_a_at) / Fold change /veh RGS16 (11720943_a_at) / RFU RGS16 (11720944_at) / Fold change /veh RGS16 (11720944_at) / RFU, VPS4B / Fold change vs veh, VPS4B / RFU, CREB1 / Fold change vs veh, CREB1 / RFU, DNAJC13 / Fold change vs veh, DNAJC13 / RFU, GNAQ / Fold change vs veh, GNAQ / RFU, CDK5R1 / Fold change vs veh, CDK5R1 / RFU, ZRANB3 / Fold change vs veh, ZRANB3 / RFU, CUL4A / Fold change vs veh, CUL4A / RFU, CCNY / Fold change vs veh, CCNY / RFU, UFL1 / Fold change vs veh, UFL1 / RFU, COG3 / Fold change vs veh, COG3 / RFU, DIAPH2 / Fold change vs veh, DIAPH2 / RFU, SKA2 / Fold change vs veh, SKA2 / RFU, AFF3 / Fold change vs veh, AFF3 / RFU, LMF1 / Fold change vs veh, LMF1 / RFU, IPO11 / Fold change vs veh, IPO11 / RFU, DFFB / Fold change vs veh, DFFB / RFU, FOXP1 / Fold change vs veh, FOXP1 / RFU, CARD8 / Fold change vs veh, CARD8 / RFU, STRN3 / Fold change vs veh, STRN3 / RFU, ADK / Fold change vs veh, ADK / RFU, RASSF2 / Fold change vs veh, RASSF2 / RFU, WIPF1 / Fold change vs veh, WIPF1 / RFU, LARP1B / Fold change vs veh, LARP1B / RFU, RASA1 / Fold change vs veh, RASA1 / RFU, RB1 / Fold change vs veh, RB1 / RFU, PPFIA1 / Fold change vs veh, PPFIA1 / RFU, MAT2A / Fold change vs veh, MAT2A / RFU, CCT5 / Fold change vs veh, CCT5 / RFU, WDR92 / Fold change vs veh, WDR92 / RFU, CUX1 / Fold change vs veh, CUX1 / RFU, TTC7A / Fold change vs veh, TTC7A / RFU, TMEM135 / Fold change vs veh, TMEM135 / RFU, DEPTOR / Fold change vs veh, DEPTOR / RFU, CPM / Fold change vs veh, CPM / RFU, DNAJB6 / Fold change vs veh, DNAJB6 / RFU, CACNA2D3 / Fold change vs veh, CACNA2D3 / RFU, DTX4 / Fold change vs veh, DTX4 / RFU, TFCP2 / Fold change vs veh, TFCP2 / RFU, GMCL1 /// GMCL1P1 / Fold change vs veh, GMCL1 /// GMCL1P1 / RFU, AEBP2 / Fold change vs veh, AEBP2 / RFU, SNHG1 /// SNORD22 /// SNORD25 /// SNORD26 /// SNORD27 /// SNORD28 /// SNORD29 /// SNORD31 / Fold change vs veh, SNHG1 /// SNORD22 /// SNORD25 /// SNORD26 /// SNORD27 /// SNORD28 /// SNORD29 /// SNORD31 / Fold change (Aza/veh), C12orf56 (ProbeSet 11735607_a_at) / Fold change (ACY-1035/veh), C12orf56 (ProbeSet 11735607_a_at) / Fold change (Aza/veh), FGFR1OP (ProbeSet 11751329_s_at) / Fold change (ACY-1035/veh), FGFR1OP (ProbeSet 11751329_s_at) / Fold change (Aza/veh), VPS36 (ProbeSet 11739960_a_at) / Fold change (ACY-1035/veh), VPS36 (ProbeSet 11739960_a_at) / RFU SYPL1 (11715823_x_at) / Fold change /veh SYPL1 (11715823_x_at) / RFU IGFBP7 (11715501_s_at) / Fold change /veh IGFBP7 (11715501_s_at) / RFU REEP3 (11722064_at) / Fold change /veh REEP3 (11722064_at) / RFU IGLL1 (11728026_x_at) / Fold change /veh IGLL1 (11728026_x_at): dose or concentration left out as unconfirmed. Particulars: MV-4-11 cells, 48 hours.

With `Nc1ncn([C@@H]2O[C@H](CO)[C@@H](O)[C@H]2O)c(=O)n1` [azacitidine], the “RFU BIN1 (11741810_x_at)” value is 29.77 RFU.
